The results in this text go back to patent US20220089602A1, “COMPOUNDS THAT INDUCE FERROPTIC CELL DEATH” (The Board of Trustees of the University of Illinois, priority 2019, published 2022).

For one series, the system named is ES-2 cells. Briefly: Confocal microscopy competition with fluorescent analogue P30. Type of series: cell-based. Conditions: pretreatment at 3× IC50 for 30 min, then P30 (5 μM). The method, then:
ES-2 cells (3×10^5 cell) were attached overnight in […] petri dish plates containing 2 ml of RPMI media. Prior to imaging, cells were stained for 30 min with Mitotracker Red CMXRoss at 100 nM final concentration. Upon media replacement, samples were pre-treated with 3× IC50 of ferroptocide, P27, L1, QQ1 for 30 min followed by treatment with 5 μM P30 for an additional 30 min and a PBS wash. PBS or phenol free media was added to each dish and cells were stained with Hoechst 33342 (1 μg/mL).

A further series has as its system ES-2 cell line. In words: 72 hr cell viability assay (Alamar Blue), dose response IC50. Conditions: for anticancer activity (in words): 72 hr cell viability assay, ES-2 cells, relative to ferroptocide; for IC50: Homo sapiens, 72 hr, ES-2 cell line, Alamar Blue fluorescence, mean ± s.e.m., n ≥ 3. Type of series: cell-based. The method, then:
40 μL of media was added to each well of a 384-well tissue culture-treated plate. 3×100 nL of compound in DMSO was then pin-transferred from compound storage plates (2 mM stocks) into media-containing wells using the Platemate Plus at the UIUC High Throughput Screening Facility. A 100,000 cells/mL suspension of ES-2 cells was prepared, and 10 μL was added to each well for a final concentration of 1000 cells/well. Doxorubicin (100 μM final) was used as a positive control. Plates were sealed with gas-permeable seals and incubated at 37° C. for 72 h. After incubation, 5 μL of Alamar blue (440 μM resazurin in sterile PBS) was added and allowed to incubate for 3-4 h, until visible color change occurred. Fluorescence was measured in a Molecular Devices SpectraMax 3 (excitation=555 nm, emission=585 nm, emission cutoff=570 nm).
To a 384-well plate, 40 μL of 1.25× compound dilution or 1.25% DMSO-containing media was added (final volume of 1% DMSO). Concentrations of compounds tested were 100 μM to 100 nM. On each plate at least 3 technical replicates per compound were performed. Next, 10 μL of a 100,000 cells/mL suspension was added to each well, yielding a final concentration of 1,000 cells/well. To three wells in column 2 was added 1 μL of 10 mM doxorubicin (final concentration of 200 μM) as positive control of cell death. Plates were sealed with gas-permeable seals and incubated at 37° C. for 72 h. At that time, 5 μL of Alamar blue (440 μM resazurin in sterile PBS) was added and plates were incubated for 3-4 hours. Fluorescence was read on a Molecular Devices SpectraMax 3 (excitation=555 nm, emission=585 nm, emission cutoff=570 nm). Wells were normalized to the average of untreated wells (0% cell death). The data were plotted as compound concentration versus percent dead cells and fitted to a logistic-dose response curve using OriginPro 2015 (OriginLab, Northampton, Mass.). The data were generated in triplicate, and IC50 values are reported as the average of three separate experiments along with standard error of the mean.

The nature of series [1]: In vitro glutathione assay (LC-MS). Particulars: 100 μM compound, 5 mM glutathione, PBS, 37° C. Type of series: physicochemical. The method, then: To an eppendorf tube added, 245 μL of 1×PBS, 5 μL of 10 mM DMSO stock of ferroptocide or P23 and 250 μL of reduced GSH (5 mM final concentration). Reactions were vortexed briefly and incubated at 37° C. Adduct formation was monitored at the indicated time points (0, 0.5, 1, 2, 3, 24 hr) by mixing an aliquot of 50 μL from the reaction mixture with 50 μL of MeOH before LC/MS analysis.

Entries after “also recorded” stand apart in the source; their conditions may differ.

With `C=CC1CN2CCC1CC2[C@H](OC(=O)CCl)c1ccnc2ccc(OC)cc12` (some centres unmarked) [QQ1], in the series with ES-2 cells, the “competition of P30 staining” value was “non-competing compounds”. `CO[C@H]1C[C@@]23CC[C@@H](C)[C@@](C)([C@H](OC(=O)CCl)C[C@@H](C4=CCn5c(=O)n(-c6ccccc6)c(=O)n5C4)[C@@H]2C)[C@]3(O)C1=O` [Compound P19]: in the series on ES-2 cell line, the “anticancer activity (in words)” value is reported as “did not change the activity” and it took 1.9 ± 0.1 µM to reach half-maximal inhibition (IC50). In the case of `CC(=O)O[C@H]1C[C@@]23CC[C@@H](C)[C@@](C)([C@H](OC(=O)CCl)C[C@@H](C4=CCn5c(=O)n(-c6ccccc6)c(=O)n5C4)[C@@H]2C)[C@]3(O)C1=O` [Compound P20], in the series on ES-2 cell line, the “anticancer activity (in words)” value is on record as “did not change the activity” and the IC50 amounted to 1.4 ± 0.5 µM. For `CO[C@H]1C[C@@]23CC[C@@H](C)[C@@](C)([C@H](OC(=O)C(Cl)Cl)C[C@@H](C4=CCn5c(=O)n(-c6ccccc6)c(=O)n5C4)[C@@H]2C)[C@]3(O)C1=O` [Compound P25], in that order: “no anticancer activity” and over 100 µM. As for `C[C@@H]1CC[C@@]23C[C@H](O)C(=O)[C@@]2(O)[C@]1(C)[C@H](OC(=O)CI)C[C@@H](C1=CCn2c(=O)n(-c4ccccc4)c(=O)n2C1)[C@@H]3C` [Compound P23], in the series with ES-2 cell line, the “anticancer activity (in words)” value was “greater potency in cells” and half-maximal inhibition (IC50) required 0.24 ± 0.002 µM. Also, the “reactivity with excess glutathione (in words)” value in series [1] was “rapid reaction”. For the molecule `C#CCN1C(=O)C2CC=C([C@@H]3C[C@@H](OC(=O)CCl)[C@]4(C)[C@H](C)CC[C@]5(C[C@H](O)C(=O)[C@]54O)[C@H]3C)CC2C1=O` (some centres unmarked) [Compound P29], the “anticancer activity (in words)” value with ES-2 cell line is “retained anticancer activity similar to ferroptocide; also recorded: retain biological activity”. For `CO[C@H]1C[C@@]23CC[C@@H](C)[C@@](C)([C@H](OC(C)=O)C[C@@H](C4=CCn5c(=O)n(-c6ccccc6)c(=O)n5C4)[C@@H]2C)[C@]3(O)C1=O` [Compound P21], in the series with ES-2 cell line, the “anticancer activity (in words)” value was “eliminated activity” and the IC50 was over 100 µM.

In the case of `C=C[C@]1(C)C[C@@H](OC(=O)CCl)[C@]2(C)[C@H](C)CC[C@]3(CCC(=O)[C@H]32)[C@@H](C)[C@@H]1O` [Compound P27], the “competition of P30 staining” value in the series with ES-2 cells was “non-competing compounds”. Consider `C[C@@H]1CC[C@@]23C[C@H](O)C(=O)[C@@]2(O)[C@]1(C)[C@H](OC(=O)CF)C[C@@H](C1=CCn2c(=O)n(-c4ccccc4)c(=O)n2C1)[C@@H]3C` [Compound P22], for which, in the series on ES-2 cell line, the “anticancer activity (in words)” value is listed as “greatly diminished anticancer activity” and half-maximal inhibition (IC50) required 34 ± 5.7 µM. `CC[C@H](C)C(=O)O[C@H]1C[C@@H](C)C=C2C=C[C@H](C)[C@H](CC[C@@H]3C[C@@H](OC(=O)CCl)CC(=O)O3)[C@H]21` [Compound L1]: the “competition of P30 staining” value in the series with ES-2 cells is “non-competing compounds”. Take `CO[C@H]1C[C@@]23CC[C@@H](C)[C@@](C)([C@H](OC(=O)c4ccco4)C[C@@H](C4=CCn5c(=O)n(-c6ccccc6)c(=O)n5C4)[C@@H]2C)[C@]3(O)C1=O` [Compound P26]: in the series with ES-2 cell line, the “anticancer activity (in words)” value was “no anticancer activity” and the IC50 was over 100 µM. Turning to `CC1=CC(C)=[N+]2C1=Cc1ccc(CCC(=O)NCCCn3cc(CN4C(=O)C5CC=C([C@@H]6C[C@@H](OC(=O)CCl)[C@]7(C)[C@H](C)CC[C@]8(C[C@H](O)C(=O)[C@]87O)[C@H]6C)CC5C4=O)nn3)n1[B-]2(F)F` (some centres unmarked) [Compound P30], in the series on ES-2 cell line, the “anticancer activity (in words)” value is reported as “retained anticancer activity similar to ferroptocide; also recorded: retain biological activity”. The same measure, in the same setting: in the case of `C[C@@H]1CC[C@@]23C[C@H](O)C(=O)[C@@]2(O)[C@]1(C)[C@H](OC(=O)CCl)C[C@@H](C1=CCC2C(=O)N(c4ccccc4)C(=O)C2C1)[C@@H]3C` (some centres unmarked) [Compound P28] it was “minimal loss in activity; also recorded: retain biological activity”. For the molecule `CC(=O)OCC(=O)O[C@@H]1C[C@@H](C2=CCn3c(=O)n(-c4ccccc4)c(=O)n3C2)[C@H](C)[C@@]23CC[C@@H](C)[C@]1(C)[C@]2(O)C(=O)[C@@H](O)C3` [Compound P24], in the series with ES-2 cell line, the “anticancer activity (in words)” value was “no anticancer activity” and the IC50 is over 100 µM.

By IC50 is commonly meant the midpoint of a concentration-inhibition curve. Lower therefore signals higher potency.
